Tests used:
MSSA ATCC 29213 = experiment: MIC, agar dilution, MSSA ATCC 29213; assay type: cell-based, S. aureus; conditions: Staphylococcus aureus; MSSA ATCC 29213; read-out: MIC
MSSA 15 = experiment: MIC, agar dilution, MSSA 15 (clinical isolate); assay type: cell-based, S. aureus; conditions: Staphylococcus aureus; MSSA 15, isolated from patients in China; read-out: MIC
MSSA 16-1 = experiment: MIC, agar dilution, MSSA 16-1 (clinical isolate); assay type: cell-based, S. aureus; conditions: Staphylococcus aureus; MSSA 16-1, isolated from patients in China; read-out: MIC
MSSE ATCC 12228 = experiment: MIC, agar dilution, MSSE ATCC 12228; assay type: cell-based, S. epidermidis; conditions: Staphylococcus epidermidis, ATCC12228; MSSE ATCC 12228; read-out: MIC
MSSE 16-5 = experiment: MIC, agar dilution, MSSE 16-5 (clinical isolate); assay type: cell-based, S. epidermidis; conditions: Staphylococcus epidermidis; MSSE 16-5, isolated from patients in China; read-out: MIC
S.s ATCC 15305 = experiment: MIC, agar dilution, S.s ATCC 15305; assay type: cell-based; conditions: Staphylococcus saprophyticus, ATCC15305; S. saprophyticus ATCC 15305; read-out: MIC
S.h ATCC 35982 = experiment: MIC, agar dilution, S.h ATCC 35982; assay type: cell-based; conditions: Staphylococcus hominis, ATCC35982; S. hominis ATCC 35982; read-out: MIC
MRSA 13-18 = experiment: MIC, agar dilution, MRSA 13-18; assay type: cell-based; conditions: Staphylococcus aureus; MRSA 13-18; read-out: MIC
MRSA 13-23 = experiment: MIC, agar dilution, MRSA 13-23; assay type: cell-based; conditions: Staphylococcus aureus; MRSA 13-23; read-out: MIC
MRSA 16-34 = experiment: MIC, agar dilution, MRSA 16-34; assay type: cell-based; conditions: Staphylococcus aureus; MRSA 16-34; read-out: MIC
MRSA ATCC 43300 = experiment: MIC, agar dilution, MRSA ATCC 43300; assay type: cell-based; conditions: Staphylococcus aureus; MRSA ATCC 43300; read-out: MIC
MRSA ATCC-B AA-1708 = experiment: MIC, agar dilution, MRSA ATCC-BAA-1708 (mupA positive); assay type: cell-based; conditions: Staphylococcus aureus; MRSA ATCC-BAA-1708, mupA positive (mupirocin resistance); read-out: MIC
MRSA ATCC -BAA-976 = experiment: MIC, agar dilution, MRSA ATCC-BAA-976 (clindamycin-resistant); assay type: cell-based; conditions: Staphylococcus aureus; MRSA ATCC-BAA-976, clindamycin-resistant S. aureus; read-out: MIC
VISA ATCC 700698 = experiment: MIC, agar dilution, VISA ATCC 700698; assay type: cell-based; conditions: Staphylococcus aureus; VISA ATCC 700698; read-out: MIC
VISA ATCC 700699 = experiment: MIC, agar dilution, VISA ATCC 700699; assay type: cell-based; conditions: Staphylococcus aureus; VISA ATCC 700699; read-out: MIC
MRSE 13-3 = experiment: MIC, agar dilution, MRSE 13-3; assay type: cell-based, S. epidermidis; conditions: Staphylococcus epidermidis; MRSE 13-3; read-out: MIC
MRSE 16-5 = experiment: MIC, agar dilution, MRSE 16-5; assay type: cell-based, S. epidermidis; conditions: Staphylococcus epidermidis; MRSE 16-5; read-out: MIC

Structure (SMILES) | MIC (MSSA ATCC 29213) | MIC (MSSA 15) | MIC (MSSA 16-1) | MIC (MSSE ATCC 12228) | MIC (MSSE 16-5) | MIC (S.s ATCC 15305) | MIC (S.h ATCC 35982) | MIC (MRSA 13-18) | MIC (MRSA 13-23) | MIC (MRSA 16-34) | MIC (MRSA ATCC 43300) | MIC (MRSA ATCC-B AA-1708) | MIC (MRSA ATCC -BAA-976) | MIC (VISA ATCC 700698) | MIC (VISA ATCC 700699) | MIC (MRSE 13-3) | MIC (MRSE 16-5)
COc1ccc2c(c[n+]3ccc4cc5c(c6c(Cc7ccc(F)cc7F)cc2c3c46)OCO5)c1O [13c, 1,2-Methylenedioxy-8-hydroxy-9-methoxy-13-2′,4′-difluorobenzylcycloberberine chloride] | 8 µg/mL | 8 µg/mL | 8 µg/mL | 8 µg/mL | 8 µg/mL | 16 µg/mL | 8 µg/mL | 16 µg/mL | 8 µg/mL | 8 µg/mL | 8 µg/mL | 4 µg/mL | 8 µg/mL | 8 µg/mL | 8 µg/mL | 8 µg/mL | 8 µg/mL
COc1ccc2c(c[n+]3ccc4cc5c(c6c(Cc7c(F)cccc7F)cc2c3c46)OCO5)c1O [13d, 1,2-Methylenedioxy-8-hydroxy-9-methoxy-13-2′,6′-difluorobenzylcycloberberine chloride] | > 64 µg/mL | > 64 µg/mL | > 64 µg/mL | > 64 µg/mL | > 64 µg/mL | > 64 µg/mL | > 64 µg/mL | > 64 µg/mL | > 64 µg/mL | > 64 µg/mL | > 64 µg/mL | > 64 µg/mL | > 64 µg/mL | > 64 µg/mL | > 64 µg/mL | > 64 µg/mL | 32 µg/mL
COc1ccc2c(c[n+]3ccc4cc5c(c6c(Cc7ccccc7C)cc2c3c46)OCO5)c1O [13g, 1,2-Methylenedioxy-8-hydroxy-9-methoxy-13-o-methylbenzylcycloberberine chloride] | > 64 µg/mL | > 64 µg/mL | > 64 µg/mL | > 64 µg/mL | > 64 µg/mL | > 64 µg/mL | > 64 µg/mL | > 64 µg/mL | > 64 µg/mL | > 64 µg/mL | > 64 µg/mL | > 64 µg/mL | > 64 µg/mL | > 64 µg/mL | > 64 µg/mL | 64 µg/mL | 64 µg/mL
COc1ccc2c(c[n+]3ccc4cc5c(c6c(Cc7cc(C)cc(C)c7)cc2c3c46)OCO5)c1O [13j, 1,2-Methylenedioxy-8-hydroxy-9-methoxy-13-3′,5′-dimethylbenzylcycloberberine chloride] | 32 µg/mL | 32 µg/mL | 32 µg/mL | 32 µg/mL | 16 µg/mL | 64 µg/mL | 32 µg/mL | 32 µg/mL | 32 µg/mL | 16 µg/mL | 32 µg/mL | 16 µg/mL | 32 µg/mL | 32 µg/mL | 32 µg/mL | 16 µg/mL | 16 µg/mL
COc1ccc2c(c[n+]3ccc4cc5c(c6c(Cc7ccc(C(C)(C)C)cc7)cc2c3c46)OCO5)c1O [13k, 1,2-Methylenedioxy-8-hydroxy-9-methoxy-13-p-tert-butylmethylbenzylcyclo berberine chloride] | 32 µg/mL | 32 µg/mL | 16 µg/mL | 16 µg/mL | 8 µg/mL | 32 µg/mL | 32 µg/mL | 16 µg/mL | 32 µg/mL | 16 µg/mL | 32 µg/mL | 8 µg/mL | 16 µg/mL | 32 µg/mL | 32 µg/mL | 8 µg/mL | 8 µg/mL
COc1ccc2c(c[n+]3ccc4cc5c(c6c(Cc7ccc(OC(F)(F)F)cc7)cc2c3c46)OCO5)c1O [13l, 1,2-Methylenedioxy-8-hydroxy-9-methoxy-13-p-trifluoromethoxybenzylcyclo berberine chloride] | 32 µg/mL | 32 µg/mL | 32 µg/mL | 32 µg/mL | 32 µg/mL | 64 µg/mL | 64 µg/mL | 32 µg/mL | 32 µg/mL | 32 µg/mL | 64 µg/mL | 32 µg/mL | 64 µg/mL | 64 µg/mL | 32 µg/mL | 32 µg/mL | 32 µg/mL
COc1ccc2c(c[n+]3ccc4cc5c(c6c(Cc7ccccc7C#N)cc2c3c46)OCO5)c1O [13m, 1,2-Methylenedioxy-8-hydroxy-9-methoxy-13-o-cyanbenzylcycloberberine chloride] | > 64 µg/mL | > 64 µg/mL | > 64 µg/mL | > 64 µg/mL | > 64 µg/mL | > 64 µg/mL | > 64 µg/mL | > 64 µg/mL | > 64 µg/mL | > 64 µg/mL | > 64 µg/mL | > 64 µg/mL | > 64 µg/mL | > 64 µg/mL | > 64 µg/mL | > 64 µg/mL | > 64 µg/mL
COc1ccc2c(c[n+]3ccc4cc5c(c6c(Cc7cccc(C#N)c7)cc2c3c46)OCO5)c1O [13n, 1,2-Methylenedioxy-8-hydroxy-9-dimethoxy-13-m-cyanbenzylcycloberberine chloride] | > 64 µg/mL | > 64 µg/mL | > 64 µg/mL | 16 µg/mL | 32 µg/mL | > 64 µg/mL | 64 µg/mL | > 64 µg/mL | > 64 µg/mL | > 64 µg/mL | > 64 µg/mL | > 64 µg/mL | > 64 µg/mL | > 64 µg/mL | > 64 µg/mL | 64 µg/mL | 32 µg/mL
COc1ccc2c(c[n+]3ccc4cc5c(c6c(Cc7cccc([N+](=O)[O-])c7)cc2c3c46)OCO5)c1O [13q, 1,2-Methylenedioxy-8-hydroxy-9-methoxy-13-m-nitrobenzylcycloberberine chloride] | > 64 µg/mL | > 64 µg/mL | 64 µg/mL | 64 µg/mL | 32 µg/mL | > 64 µg/mL | 64 µg/mL | > 64 µg/mL | > 64 µg/mL | > 64 µg/mL | > 64 µg/mL | > 64 µg/mL | 64 µg/mL | > 64 µg/mL | 64 µg/mL | 64 µg/mL | 32 µg/mL

Reference: publication PMC6429263, “Evolution and Antibacterial Evaluation of 8-Hydroxy-cycloberberine Derivatives as a Novel Family of Antibacterial Agents Against MRSA” (Molecules, 2019)
